Source: the supplement of paper PMC10307832

Experiments:
Experiment in all cases: relative viability (nuclei count vs DMSO), 5 days (fraction); higher = more cells survive
[1] = compound: CN(C/C=C/C1=CC=C(C=C1)Cl)CC2=CC=CC=C2N(CCO)S(=O)(=O)C3=CC=C(C=C3)OC [KN-93]
In short: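 Lung cancer cell lines in 1536-well plates were kept overnight at 37 °C, then pinned with five library-drug doses (not always all listed) spaced by √10 on vehicle-anchored plates. After 5 days without medium change, cells were fixed, permeabilised and Hoechst-stained in one step, imaged at 4×, and nuclei were counted with MetaXpress. Viability is treated-well nuclei divided by vehicle-well nuclei, taken as the median over plates. Plates passed only with control CV below 25% and at least one doubling.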

[2] = compound: CN(C/C=C/C1=CC=C(C=C1)Cl)CC2=CC=CC=C2N(CCO)S(=O)(=O)C3=CC=C(C=C3)OC [KN-93] + C[C@@H](Oc1cc(-c2cnn(C3CCNCC3)c2)cnc1N)c1c(Cl)ccc(F)c1Cl [Crizotinib] (partner 1 µM)
In short: (§1)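 Medians of duplicate plates are given as relative viability. That measure is the nuclei count in treated wells divided by the count in vehicle wells. Counts were taken on 4× images of lung cancer cell lines in 1536-well plates, 5 days after pin-tool dosing the day after seeding with one drug alone or a fixed anchor-drug dose plus five library-drug doses (not always all listed) in √10 steps.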

[3] = compound: CN(C/C=C/C1=CC=C(C=C1)Cl)CC2=CC=CC=C2N(CCO)S(=O)(=O)C3=CC=C(C=C3)OC [KN-93] + Cc1nc(NC(=O)N2CCC[C@H]2C(N)=O)sc1-c1ccnc(C(C)(C)C(F)(F)F)c1 [Alpelisib] (partner 2 µM)
In short: as §1

[4] = compound: CN(C/C=C/C1=CC=C(C=C1)Cl)CC2=CC=CC=C2N(CCO)S(=O)(=O)C3=CC=C(C=C3)OC [KN-93] + Cc1nc(Nc2ncc(C(=O)Nc3c(C)cccc3Cl)s2)cc(N2CCN(CCO)CC2)n1 [Dasatinib] (partner 0.075 µM)
In short: as §1

[5] = compound: CN(C/C=C/C1=CC=C(C=C1)Cl)CC2=CC=CC=C2N(CCO)S(=O)(=O)C3=CC=C(C=C3)OC [KN-93] + O=C(c1cc(Cc2n[nH]c(=O)c3ccccc23)ccc1F)N1CCN(C(=O)C2CC2)CC1 [Olaparib] (partner 8 µM)
In short: as §1

Cell Line | relative viability ([1]; 0.08 µM) | relative viability ([1]; 0.253 µM) | relative viability ([1]; 2.53 µM) | relative viability ([1]; 8 µM) | relative viability ([2]; first compound 0.08 µM) | relative viability ([2]; first compound 0.253 µM) | relative viability ([2]; first compound 2.53 µM) | relative viability ([2]; first compound 8 µM) | relative viability ([3]; first compound 0.08 µM) | relative viability ([3]; first compound 0.253 µM) | relative viability ([3]; first compound 2.53 µM) | relative viability ([3]; first compound 8 µM) | relative viability ([4]; first compound 0.08 µM) | relative viability ([4]; first compound 0.253 µM) | relative viability ([4]; first compound 2.53 µM) | relative viability ([4]; first compound 8 µM) | relative viability ([5]; first compound 0.08 µM) | relative viability ([5]; first compound 0.253 µM) | relative viability ([5]; first compound 2.53 µM) | relative viability ([5]; first compound 8 µM)
LXF-289 | 0.942 | 1.07 | 1.02 | 0.828 | 0.782 | 0.913 | 0.825 | 0.532 | 0.974 | 1.11 | 1.11 | 0.705 | 0.238 | 0.197 | 0.229 | 0.141 | 0.903 | 1.18 | 1.25 | 0.955
NCI-H23 | 0.997 | 1.18 | 1.02 | 0.56 | 0.446 | 0.54 | 0.574 | 0.534 | 0.592 | 0.702 | 1.01 | 0.596 | 0.64 | 0.84 | 0.818 | 0.439 | 0.3 | 0.251 | 0.407 | 0.233
NCI-H322M | 0.872 | 0.941 | 0.959 | 0.768 | 1.08 | 0.982 | 0.896 | 0.905 | 0.873 | 1.06 | 0.836 | 0.686 | 0.256 | 0.25 | 0.26 | 0.204 | 0.766 | 0.817 | 0.706 | 0.689
NCI-H358 | 0.834 | 1.04 | 0.916 | 0.539 | 0.565 | 0.568 | 0.519 | 0.426 | 0.843 | 0.992 | 0.72 | 0.319 | 0.182 | 0.168 | 0.15 | 0.148 | 0.678 | 0.638 | 0.608 | 0.502
NCI-H441 | 0.709 | 1.14 | 1.3 | 0.731 | 0.716 | 0.879 | 0.76 | 0.565 | – | 1.18 | 0.772 | 0.341 | 0.758 | 0.639 | 0.617 | 0.458 | – | 0.799 | 0.531 | 0.467
NCI-H460 | 0.821 | 1.06 | 1.03 | 0.652 | 0.387 | 0.985 | 1.33 | 0.449 | 0.47 | 0.649 | 0.42 | 0.203 | 0.489 | 0.526 | 0.726 | 0.35 | 0.286 | 0.468 | 0.586 | 0.305
NCI-H520 | 0.91 | 1.05 | 1.14 | 0.815 | – | 1.08 | 0.759 | 0.586 | – | 1.38 | 1.05 | 0.763 | 0.203 | 0.197 | 0.258 | 0.155 | 0.312 | 0.312 | 0.282 | 0.272
NCI-H596 | 0.913 | 1.15 | 0.941 | 0.5 | 0.906 | 1.09 | 1.03 | 0.691 | 0.442 | 0.459 | 0.51 | 0.334 | 0.607 | 0.642 | 0.587 | 0.421 | 0.737 | 0.507 | 0.658 | 0.642
NCI-H647 | 0.985 | 1.25 | 1.01 | 0.813 | 0.916 | 1.48 | 1.13 | 0.511 | 1.39 | 1.52 | 1.32 | 0.717 | 0.161 | 0.216 | 0.253 | 0.164 | 0.648 | 0.766 | 0.881 | 0.421
NCI-H650 | 1.01 | 1.1 | 1.11 | 0.598 | 0.866 | 0.735 | 0.772 | 0.488 | 1.04 | 1.34 | 1.04 | 0.65 | 0.465 | 0.526 | 0.417 | 0.355 | 0.425 | 0.366 | 0.368 | 0.397
NCI-H661 | 0.938 | 1.02 | 0.968 | 0.583 | 0.855 | 0.875 | 0.988 | 0.761 | 0.578 | 0.597 | 0.796 | 0.161 | 1.01 | 0.808 | 0.69 | 0.413 | 0.577 | 0.951 | 0.64 | 0.4
NCI-H727 | 1.03 | 0.833 | 1.02 | 0.649 | 0.667 | 1 | 0.637 | 0.429 | 0.466 | 0.525 | 0.563 | 0.378 | 0.44 | 0.399 | 0.415 | 0.237 | 0.69 | – | 0.744 | 0.738
NCI-H838 | 0.935 | 0.883 | 1.02 | 0.908 | 0.764 | 0.86 | 0.94 | 0.7 | 0.989 | 0.911 | 1.09 | 0.887 | 0.32 | 0.236 | 0.334 | 0.239 | 0.939 | 0.709 | 1.18 | 0.613
NCI-H1355 | 0.834 | 0.891 | 1.06 | 0.724 | 0.915 | 1.11 | 1.15 | 0.837 | 0.731 | 0.719 | 0.946 | 0.697 | 0.588 | 0.551 | 0.695 | 0.503 | 0.628 | 0.67 | 0.766 | 0.477
NCI-H1437 | 1.03 | 1.09 | 0.895 | 0.584 | 0.851 | 1.27 | 0.894 | 0.47 | 0.876 | 1.25 | 0.88 | 0.613 | 0.457 | 0.44 | 0.374 | 0.153 | 0.626 | 0.683 | 0.564 | 0.456
